The subject of test [1] is specific allergic asthma of guinea pigs. Particulars: guinea pig, in vivo.

`C[N+]12CCC(CC1)C(OCC(O)(c1ccccc1)C1CCCC1)C2.[Br-]` (single isomer, unassigned) [Example 3, 1-type diastereoisomer of 3-(N-methyl-quinuclidinyl)-(2′-phenyl-2′-cyclopentyl-2′-hydroxyl)ethyl ether bromide]: the “latent period” value in test [1] came to 243.50 ± 42.13 s. Also, in the test with ex vivo ileum specimen, the “ileum contraction response resulted from electric irritation” value (from here on “ileum contraction response resulted”) is reported as “completely blocked”.

With `C[N+]12CCC(CC1)C(OCC(O)(c1ccccc1)C1CCCC1)C2.[Br-]` (single isomer, unassigned) [Example 4, II-type diastereoisomer of 3-(N-methyl-quinuclidinyl)-(2′-phenyl-2′-cyclopentyl-1-2′-hydroxyl)ethyl ether bromide], the “latent period” value in test [1] was determined as 231.60 ± 37.30 s. Moreover, in the test on ex vivo ileum specimen, the “ileum contraction response resulted” value was “completely blocked”.

As to `C[N+]12CCC(CC1)C(OCC(O)(c1ccccc1)C1CCCC1)C2.[Br-]` (stereo not drawn) [Example 2, 3-(N-methyl-quinuclidinyl)-(2′-phenyl-2′-cyclopentyl-2′-hydroxyl)ethyl ether bromide], the “latent period” value in test [1] was found to be 248.90 ± 38.24 s. Moreover, the “ileum contraction response resulted” value with ex vivo ileum specimen is on record as “completely blocked”.

The values are drawn from US8394824B2 (priority 2004, dated 2013).
